# Test results from US20200129434A1, “LIPOSOME COMPOSITIONS AND USES THEREOF” (TECHNION RESEARCH & DEVELOPMENT FOUNDATION LIMITED, priority 2017, published 2020).
# Columns and labels:
# U87 glioblastoma cells [1] = test: Survival studies in U87 transferred mice; type: in vivo, SCID immuno-deficient mice
# Source text: (§1) In order to assess the efficacy of the liposome composition in delivering a therapeutic agent to the brain, glioblastoma in a mouse model was employed. Curcumin was integrated into liposomes comprising cholesterol: phosphatidyl phosphoric acid: phosphatidyl choline in molar ratios of 35:7:58. The targeting peptide was present at 0.5% by molar ratio, mol % or weight %, and the curcumin was at a final concentration of 1% by molar ratio, mol % or weight %. The resulting liposomes where lyophilized, hydrated and downsized into a diameter of 0.1 μm±20%.
# (§2) These liposomes comprised cholesterol: phosphatidyl phosphoric acid: phosphatidyl choline in molar ratios of 40:5:55. The molar concentration of the drug and targeting peptide were unchanged.
# (§3) As a model of glioblastoma, SCID immuno-deficient mice were implanted with U87 glioblastoma cells. The U87 cells had previously been transfected with a luciferase gene, such that upon intraperitoneally injection of the mice with luciferin, the cells would fluoresce, allowing for accurate quantification and imaging of the tumor using the IVIS 200 imaging system. The degree of fluorescence measured was proportional to the number of cancer cells, and therefore indicated the cancer growth.
# Curcumin and TMZ in targeted liposome carriers, were administered intraperitoneally to the mice 3 days after injection of the tumor cells and for at least 3 weeks. […]
# U87 glioblastoma cells [2] = test: Tumor growth in the mouse model of glioblastoma, luciferase imaging with IVIS 200; type: in vivo, SCID immuno-deficient mice; settings: 4 mg/kg daily intraperitoneally, FIG. 3A
# Source text: as §1, §2
# as §3, with “growth. […]” for “growth.”
# By using the luciferase imaging system, quantification of the relative tumor size was possible (FIG. 3). […]
# [3] = Evaluation of liposome compositions for delivery of curcumin (solubility, drug stability, half-life); type: physicochemical; settings: curcumin loaded in the cholesterol/PA/PC liposome formulation
# Source text: To test various liposome compositions, the water insoluble drug curcumin was employed as the therapeutic agent to be incorporated into the liposome. Curcumin, has been used for many clinical purposes, including as an antioxidant, antibacterial, anti-inflammatory agent, anti-neurodegenerative processes and anticancer agent. Curcumin however, is highly water-insoluble, has a very short biological half-life, and poor pharmacokinetics. Previous attempts at liposomes for the delivery of curcumin comprised cholesterol (Ch), 1,2-dioleyl-sn-glycero-3-phosphocholine (DOPC), 1,2-dioleyl-sn-glycero-3-phosphoethanolamine (DOPE), and 1,2-dioleoyl-sn-glycero-3-[phosphor-L-serine] (DOPS), usually in equimolar amounts.
# Various compositions of liposomes for delivery of curcumin were tested and evaluated for drug loading, drug stability and half-life, and effective targeting in the body. […] The targeting peptide was dissolved in chloroform/methanol and added to the mixture at 0.1-2% by molar ratio, mol % or weight %.
# Loading of the drug into the liposome was achieved by pre-dissolving the target drug during the preparation of the liposome, thereby enabling a desired and reproducible concentration of the drug in the most stabilized environment.
smiles,measurement,setting,value
"Cn1nnc2c(C(N)=O)ncn2c1=O [free TMZ, Temozolomide]",survival time of all mice after tumor cell transfer,"U87 glioblastoma cells [1]; daily dosing 4 mg/kg, FIG. 4",≤ 30 days
same,latency period before tumor growth,U87 glioblastoma cells [2],2 weeks
"COc1cc(/C=C/C(=O)CC(=O)/C=C/c2ccc(O)c(OC)c2)ccc1O [free curcumin, curcumin]",survival compared with control (in words),U87 glioblastoma cells [1]; 4 mg drug/kg mouse daily,survival was not significantly extended
same,degradation and biological half-life of the drug,[3],protect the drug from degradation and prolong its biological half-life
